Source: patent US20230114865A1, “PHENYL PYRROLE AMINOGUANIDINE SALTS AND FORMULATIONS” (SYNACT PHARMA APS, priority 2021, published 2023)
Like-named read-outs stand apart in the source and are kept apart here. Marks after values point to notes of the source that are not given here. Each block holds one molecule with its values, some of them ahead of it.

What was measured:
[1] = buffer pH 1.2, fully dissolved, succinate 0.5 h
Description: As a result, the pH was adjusted to 1.2 with concentrated hydrochloric acid in both solutions. Both sample preparations were diluted 500 times with the sample diluent (acetonitrile:water 1:1 v/v).

MC3R = conditions: cited from earlier work
[2] = Stability of AP1189 in Ora-Sweet and Ora-Sweet SF, HPLC; format: physicochemical; conditions: 20 mg/ml suspension, pH 4.25, T=0
Description: Stability of AP1189 in Ora-Sweet and Ora-Sweet SF was tested.

[3] = tested on: experimental inflammatory arthritis; conditions: in vivo; cited from earlier work
melanocytes = conditions: cited from earlier work
primary macrophages = conditions: cited from earlier work
[4] = Chemical stability of AP1189 suspension in Syrspend SF Alka, HPLC; format: physicochemical; conditions: room temp.; for Total Impurities (% Area) Initial / Total Impurities (% Area) T = 30 min / Total Impurities (% Area) T = 60 min / Total Impurities (% Area) T = 90 min: Syrspend SF Alka
Description: An experiment was conducted at lowest (15 mg) and highest (400 mg) dose strength to assess the dispersability and physical stability of the suspension. Chemical stability of the suspension was assessed by HPLC for 90 minutes at every 30 minutes interval.

peritonitis = conditions: in vivo; cited from earlier work
[5] = Forced degradation studies on AP1189 at low pH; format: physicochemical; conditions: within 24 hours
MC1R = conditions: cited from earlier work
[6] = Solubility of additional AP1189 salts, HCl/KCl buffer 0.5 M pH 1.2; format: physicochemical

Determined concentration in pH 1.2 samples ([1]; acetate 5 h): >223 mg/mL
Determined concentration in pH 1.2 samples ([1]; time in cell: acetate 5 h): >617 mM (5 h)
Molecule: (E)-N-[1-(2-nitrophenyl)-1-H-pyrrole-2-yl-allylideneamino]-guanidinium acetate [AP1189 acetate]

AP1189 degradation in Ora-Sweet SF, Initial [2]: <LOQ
stability in Syrspend SF Alka (in words) ([4]; 90 minutes): stable
Total Impurities (% Area) Initial ([4]; dose strength 15 mg): 0.89* % Area
Total Impurities (% Area) T = 30 min ([4]; dose strength 15 mg): 0.94* % Area
Total Impurities (% Area) T = 60 min ([4]; dose strength 15 mg): 0.88* % Area
Total Impurities (% Area) T = 90 min ([4]; dose strength 15 mg): 0.87* % Area
Total Impurities (% Area) Initial ([4]; dose strength 400 mg): 0.45 % Area
Total Impurities (% Area) T = 30 min ([4]; dose strength 400 mg): 0.45 % Area
Total Impurities (% Area) T = 60 min ([4]; dose strength 400 mg): 0.45 % Area
Total Impurities (% Area) T = 90 min ([4]; dose strength 400 mg): 0.45 % Area
degradation at low pH [5]: at least 20%
Molecule: NC(N)=N/N=C/C=C/c1cccn1-c1ccccc1[N+](=O)[O-] [AP1189, (E)-N-[1-(2-nitrophenyl)-1-H-pyrrole-2-yl-allylideneamino]-guanidine]
ERK1/2 phosphorylation (MC3R): cause ERK1/2 phosphorylation
canonical cAMP generation (MC3R): does not induce canonical cAMP generation
characterisation at MC3R (MC3R): biased agonist
macroscopic and histological parameters of joint disruption [3]: significantly reduce
melanogenesis in melanocytes (melanocytes): no melanogenesis was induced
cytokine release in macrophages (primary macrophages): reduce cytokine release
efferocytosis in primary macrophages (primary macrophages): proefferocytic effect
actions in peritonitis (peritonitis): elicit anti-inflammatory actions
ERK1/2 phosphorylation (MC1R): cause ERK1/2 phosphorylation
canonical cAMP generation (MC1R): does not induce canonical cAMP generation
characterisation at MC1R (MC1R): biased agonist

Solubility HCI/KCI Buffer 0.5 M pH 1.2 [6]: <15 mM
Molecule: CC1(C)C2CCC1(CS(=O)(=O)O)C(=O)C2 (stereo not shown)
